Patent publication US6673607B2, “Microinjection of cryoprotectants for preservation of cells” (priority 2000, dated 2004)

Experiments:
[1] = cited from earlier work; for temperature at which Tm and Tg curves cross (Tg′): phase diagram, FIG. 6; for Tg′: α-(1→4)-linked glucose hexamers, Levine and Slade
[2] = tested on: metaphase II mouse oocytes; assay: fertilization and blastocyst development of fresh oocytes cultured in modified HTF media; type: cell-based
Protocol: Thus, a hypertonic media for the culturing of certain recovered cells was developed using a two-prong approach. First, a standard culture medium called HTF (human tubal fluid medium) was modified to minimize the concentration of electrolytes (see FIG. 7, components marked with down arrows) and to increase other nutrients and amino acids (see FIG. 7, components marked with up arrows). The osmolarity of this medium was determined using an osmometer. Because the osmolarity of this medium was approximately 285 mosm, which is close to the normal internal osmolarity of cells, this medium is called modified HTF, isotonic. Second, the water content of the medium was reduced to equally increase the concentrations of each component to achieve a final osmolarity of 320 mosm. This medium is called modified HTF, hypertonic, (see FIG. 7, last column).
To test the ability of modified HTF, isotonic and hypertonic media to support the fertilization and development of oocytes, these medias were used to culture fresh mouse metaphase II oocytes that had not been cyropreserved. […] If desired, the composition and hypertonicity of the culture medium may be further optimized to increase the number of blastocysts or viable offspring that are formed. For example, a culture medium having a higher osmolarity (such as 330, 340, 350, 360, 370, or 380 mosm) may better mimic oviductal fluid (which may have an osmolarity of at least 360 mosm) and thus further promote development of viable offspring (Van Winkle et al., J. Expt Zool. 253:215-219, 1990). Any other suitable hypertonic media with a osmolarity of at least 300, 310, 320, 330, 340, 350, 360, 370, 380, or more mosm may be used in preferred methods for culturing cells in vitro. These methods may be used to culture cells with or without intracellular sugar. These preferred medias may also be used before, during, or after storage of cryopreserved cells.

[3] = tested on: metaphase II mouse oocytes; assay: survival of cooled oocytes after overnight culture in modified HTF, hypertonic media (live/dead assay); type: cell-based
Protocol: (§1) Once the cell is prepared for storage, it is stored in a manner appropriate to its preparation. Frozen cells can be stored at cryogenic temperatures and dried cells can be dry stored at ambient or other temperatures as appropriate. Recovery of stored cells is geared to the method of their preparation for storage. Dried cells are rehydrated, and frozen cells are thawed. Preferably, at least 25, 35, 50, 60, 70, 80, 90, 95, or 100% of the recovered cells are viable. Cell viability may be measured using any standard assay, such as a “live/dead” assay using the green dye calcein-AM to indicate viable cells and the red dye ethidium homodimer to indicate dead cells, according to the manufacturer's protocol (Molecular Probes, Inc.). In another preferred embodiment, at least 5, 10, 15, 25, 35, 50, 60, 70, 80, 90, or 95% of the recovered oocytes may be fertilized using standard in vitro fertilization techniques (see, for example, Summers et al., Biol. Reprod. 53:431-437, 1995). Preferably, the fertilized oocytes develop into 2-cell stage embryos, 4-cell stage embryos, morula-stage embryos, blastocyst-stage embryos, fetal-stage embryos, or viable offspring.
FIGS. 9A and 9B are a set of graphs showing the survival of cooled metaphase II mouse oocytes after overnight culture in modified HTF, hypertonic media as a function of extracellular trehalose concentration at −15° and −30°, respectively. These experiments were performed using a cooling rate of 1° C./min, with or without approximately 0.10 to 0.15 M intracellular trehalose. Cell viability was assessed using the live/dead assay described herein. […] As the extracellular amount of trehalose in the freezing solution was increased from 0.15 M (approximately the same amount as the intracellular trehalose) to 0.30 M or 0.50 M, the survival rate improved from about 18, to 55 or 85%, respectively.

[4] = tested on: metaphase II mouse oocytes; assay: survival of cooled oocytes after overnight culture in modified HTF media, isotonic (live/dead assay); type: cell-based; settings: 0.50 M extracellular trehalose only; very slow cooling to −60° C.
Protocol: as §1
Cell survival was measured using the live/dead assay. […] In FIG. 10, oocytes were cooled at a very slow cooling rate to an intermediate temperature (−60° C.). […]

[5] = tested on: oocytes; assay: cryomicroscopy: cumulative incidence of intracellular ice during cooling; type: cell-based; settings: cooling 3.5° C./min
Protocol: FIG. 13 is a graph with a set of curves showing the percentage of oocytes that have intracellular ice at various temperatures. For this assay, standard cryomicroscopy procedures were used to cool oocytes at a rate of 3.5° C./min (Cosman et al., Cryo-Letters 10:17-38, 1989). The oocytes were observed using a cryomicroscope to determine whether intracellular ice had formed. The presence of intracellular ice was easily detected based on the black color that appeared due to the light scattered by the ice crystals. This assay was used to test control oocytes incubated in isotonic media alone, oocytes incubated in media with 0.1 M extracellular trehalose, and oocytes injected with 0.1 M trehalose and incubated in media with 0.1 M extracellular trehalose. […] In the field of cryobiology, it has been established that the faster the cooling rate without formation of lethal intracellular ice, the greater the chance of cell survival.

[6] = oocytes injected with 0.07 M trehalose, modified HTF, hypertonic media

C[S+](C)[O-] [DMSO, dimethyl sulfoxide]
temperature at which Tm and Tg curves cross (Tg′) [1]: approximately −80 °C

OC[C@H]1O[C@H](O[C@H]2O[C@H](CO)[C@@H](O)[C@H](O)[C@H]2O)[C@H](O)[C@@H](O)[C@@H]1O [trehalose]
frequency of blastocyst formation ([2]; intracellular trehalose 0.15 M): reduced, but still significant | frequency of fertilization ([2]; intracellular trehalose 0.15 M): reduced, but still significant | frequency of blastocyst development [2, 6]: high frequency | frequency of fertilization [2, 6]: high frequency | survival rate ([3]; 0.15 M extracellular trehalose in freezing solution, with approximately 0.10 to 0.15 M intracellular trehalose, cooling 1° C./min): about 18% | survival rate ([3]; 0.30 M extracellular trehalose in freezing solution, with approximately 0.10 to 0.15 M intracellular trehalose, cooling 1° C./min): ~55% | survival rate ([3]; 0.50 M extracellular trehalose in freezing solution, with approximately 0.10 to 0.15 M intracellular trehalose, cooling 1° C./min): ~85% | survival rate ([3]; cooled to −15° C. at 1° C./min, approximately 0.10 to 0.15 M intracellular trehalose versus none): dramatically increased | survival rate ([3]; cooled to −30° C. at 1° C./min, approximately 0.10 to 0.15 M intracellular trehalose versus none): dramatically increased | survival rate [4]: some improvement over the control | incidence of intracellular ice formation ([5]; 0.1 M extracellular trehalose versus isotonic media alone): reduced | frequency of intracellular ice ([5]; 0.1 M injected trehalose plus 0.1 M extracellular trehalose): further reduced | temperature at which Tm and Tg curves cross (Tg′) [1]: approximately −30 °C

cyclodextrin
Tg′ [1]: −9 °C

maltohexaose
Tg′ [1]: −14.5 °C
